Earlier results on five compounds are cited in patent publication US20210346453A1, “COMPOSITIONS AND METHODS FOR TREATMENT OF COVID-19” (Cognitive Clarity Inc., priority 2020, published 2021).

Data set [1] deals with inflammation in brain (astrocytosis and microgliosis). The following applies: plaque-producing transgenic mice, within 3 months of treatment.
The test system of data set [2] is brain plaques and tangles. The following applies: aging brain.
Data set [3] has as its system COVID-19. The following applies: compared to placebo.

In the case of `Oc1cc(O)c2c(c1)O[C@H](c1ccc(O)c(O)c1)[C@H](O)[C@H]2c1c(O)cc(O)c2c1O[C@H](c1ccc(O)c(O)c1)[C@H](O)C2` [Proanthocyanidin B2, epicatechin-4β-8-epicatechin], the “reduction of inflammation in brain (astrocytosis and microgliosis)” value in data set [1] was 69%-80.3%. Moreover, in data set [2], the “brain plaques and tangles” value was “inhibit and reduce”. In the case of `Oc1ccc([C@H]2Oc3cc(O)cc(O)c3[C@H](c3c(O)cc(O)c4c3O[C@H](c3ccc(O)c(O)c3)[C@H](O)C4)[C@H]2O)cc1` [epiafzelechin-4β-8-epicatechin], the “brain plaques and tangles” value in data set [2] was “inhibit and reduce”.

In the case of `Oc1cc(O)c2c(c1)O[C@H](c1ccc(O)c(O)c1)[C@@H](O)[C@@H]2c1c(O)cc(O)c2c1O[C@H](c1ccc(O)c(O)c1)[C@H](O)C2` [proanthocyanidin B4, catechin-4-α-8-epicatechin], in data set [2], the “brain plaques and tangles” value is “inhibit and reduce”. As to `Oc1cc(O)c2c(c1)O[C@H](c1ccc(O)c(O)c1)[C@H](O)[C@H]2c1c(O)cc(O)c2c1O[C@H](c1ccc(O)c(O)c1)[C@H](O)[C@H]2c1c(O)cc(O)c2c1O[C@H](c1ccc(O)c(O)c1)[C@H](O)C2` [proanthocyanidin C1, epicatechin-4β-8-epicatechin-4β-8-epicatechin], in data set [2], the “brain plaques and tangles” value is “inhibit and reduce”. As to “Bamlanivimab: monoclonal antibody treatment made by Eli Lilly”, the “risk of being hospitalized or visiting the Emergency Room within 28 days after treatment” value in data set [3] is reported as “significantly reduce”.
